IC90 data for 23 compounds are collected here from patent US11390604B2 (Hoffmann-La Roche Inc., priority 2019, dated 2022).

Structures can show the parent of a compound that is named as a salt. Where two headings read alike, the source gives them in different places.

This assay relates to Acinetobacter baumannii ATCC 17961. In words: Antimicrobial susceptibility testing: 90% growth inhibitory concentration (IC90) determination. The class given is cell-based. Put shortly:
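Broth microdilution in Iso-Sensitest medium, twofold series (e.g. 50 to 0.097 μM final), ~5×10^5 CFU/ml inoculum, 35±2 °C. OD600 read every 20 min over 16 h. IC90 derived from growth inhibition during logarithmic phase.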

The mark [1] stands for this setting: ATCC17961, Acinetobacter baumannii ATCC 17961, Iso-Sensitest broth, read-out: ATCC 17961 IC90.
[2] abbreviates: Acinetobacter baumannii, ATCC17961, read-out: ATCC 17961 IC90, Acinetobacter baumannii ATCC 17961, Iso-Sensitest broth.

For `C=CCn1cc(-c2cnc(C(=O)Nc3ccc(C(=O)N4CCN(C(=O)NC5CNC5)CC4)c(Cl)c3)n2C)c(C(F)(F)F)n1` [Example 147, N-(azetidin-3-yl)-4-[2-chloro-4-[[1-methyl-5-[1-prop-2-enyl-3-(trifluoromethyl)pyrazol-4-yl]imidazole-2-carbonyl]amino]benzoyl]piperazine-1-carboxamide], the IC90 under setting [1] turned out to be 289 nM.
As for `CCc1cc(NC(=O)c2ncc(-c3cn(CC#N)nc3C(F)(F)F)n2C)ccc1C(=O)NCCOCC(C)(C)N` [Example 170, N-(4-((2-(2-amino-2-methylpropoxy)ethyl)carbamoyl)-3-ethylphenyl)-5-(1-(cyanomethyl)-3-(trifluoromethyl)-1H-pyrazol-4-yl)-1-methyl-1H-imidazole-2-carboxamide], the 90% effect concentration (IC90) under setting [1] came out at 234 nM.
Turning to `Cn1c(-c2cn(CC3CC3)nc2C(F)(F)F)cnc1C(=O)Nc1ccc(C(=O)N2CCN(C(=O)N[C@@H]3CC[C@@H](N)C3)CC2)c(Cl)c1` [Example 369, N-((1R,3R)-3-aminocyclopentyl)-4-(2-chloro-4-(5-(1-(cyclopropylmethyl)-3-(trifluoromethyl)-1H-pyrazol-4-yl)-1-methyl-1H-imidazole-2-carboxamido)benzoyl)piperazine-1-carboxamide], the IC90 under setting [1] came to 485 nM.
Take `Cn1c(-c2cn(CC(F)(F)F)nc2C(F)(F)F)cnc1C(=O)Nc1ccc(C(=O)N2CCN(C3=NC(CN)CO3)CC2)c(Cl)c1` (centres unmarked) [Example 148, N-[4-[4-[4-(aminomethyl)-4,5-dihydro-1,3-oxazol-2-yl]piperazine-1-carbonyl]-3-chlorophenyl]-1-methyl-5-[1-(2,2,2-trifluoroethyl)-3-(trifluoromethyl)pyrazol-4-yl]imidazole-2-carboxamide]: under setting [1], the IC90 was found to be 524 nM.
Same read-out and setting: the result for `Cn1c(-c2cn(CC(F)F)nc2C(F)(F)F)cnc1C(=O)Nc1ccc(S(=O)(=O)N2CCNCC2)cc1` [Example 244, 5-(1-(2,2-difluoroethyl)-3-(trifluoromethyl)-1H-pyrazol-4-yl)-1-methyl-N-(4-(piperazin-1-ylsulfonyl)phenyl)-1H-imidazole-2-carboxamide hydrochloride] reads 287 nM; that for `Cn1c(-c2cn(CC#N)nc2C(F)(F)F)cnc1C(=O)Nc1ccc(C(=O)N[C@H]2CC[C@@H](NC(=O)[C@H]3C[C@H](N)C3)CC2)c(Cl)c1` [Example 372, rac-N-(4-(((1S,4s)-4-((1r,3R)-3-aminocyclobutane-1-carboxamido)cyclohexyl)car-bamoyl)-3-chlorophenyl)-5-(1-(cyanomethyl)-3-(trifluoromethyl)-1H-pyrazol-4-yl)-1-methyl-1H-imidazole-2-carboxamide 2,2,2-trifluoroacetate], 486 nM.
On to `C=C=Cn1cc(-c2cnc(C(=O)Nc3ccc(C(=O)N4CCN(C(=O)C5CCNCC5)CC4)c(Cl)c3)n2C)c(C(F)(F)F)n1` [Example 65, N-[3-chloro-4-[4-(piperidine-4-carbonyl)piperazine-1-carbonyl]phenyl]-1-methyl-5-[1-propa-1,2-dienyl-3-(trifluoromethyl)pyrazol-4-yl]imidazole-2-carboxamide; Hydrochloride], for which the 90% effect concentration (IC90) under setting [2] worked out at 260 nM.
As to `Cn1c(-c2cn(C3CC3)nc2C(F)(F)F)cnc1C(=O)Nc1ccc(C(=O)NC2CC3(CC(N)C3)C2)c(Cl)c1` (centres unmarked) [Example 317, N-(4-((6-aminospiro[3.3]heptan-2-yl)carbamoyl)-3-chlorophenyl)-5-(1-cyclopropyl-3-(trifluoromethyl)-1H-pyrazol-4-yl)-1-methyl-1H-imidazole-2-carboxamide hydrochloride], under setting [1], the IC90 was 393 nM.
With `CCc1cc(NC(=O)c2ncc(-c3cn(Cc4cccnc4)nc3C(F)(F)F)n2C)ccc1C(=O)N1CCN(C(=O)C2CCN(C)CC2)CC1` [Example 158, N-[3-ethyl-4-[4-(1-methylpiperidine-4-carbonyl)piperazine-1-carbonyl]phenyl]-1-methyl-5-[1-(pyridin-3-ylmethyl)-3-(trifluoromethyl)pyrazol-4-yl]imidazole-2-carboxamide;formic acid], the IC90 under setting [1] came out at 1200 nM.
Still for that read-out and setting: to `Cn1c(-c2cn(CC#N)nc2C(F)(F)F)cnc1C(=O)Nc1ccc(C(=O)N2CCN(C(=O)NC3CNC3)CC2)c(Cl)c1` [Example 151] belongs 475 nM.
As to `Cn1c(-c2cn(CCF)nc2C(F)(F)F)cnc1C(=O)Nc1ccc(C(=O)N2CCN(C(=O)[C@H]3C[C@H](N)C3)CC2)c(Cl)c1` [Example 298, N-[4-[4-(3-aminocyclobutanecarbonyl)piper-azine-1-carbonyl]-3-chlorophenyl]-5-[1-(2-fluoroethyl)-3-(trifluoromethyl)pyrazol-4-yl]-1-methylimidazole-2-carboxamide;trihydrochloride], the concentration for an effect of 90% (IC90) under setting [1] came to 365 nM.
Regarding `Cn1c(-c2cn(C3CCC3)nc2C(F)(F)F)cnc1C(=O)Nc1ccc(C(=O)N2CCN(C(=O)NC3CNC3)CC2)c(Cl)c1` [Example 150, N-(azetidin-3-yl)-4-[2-chloro-4-[[5-[1-cyclobutyl-3-(trifluoromethyl)pyrazol-4-yl]-1-methylimidazole-2-carbonyl]amino]benzoyl]piperazine-1-carboxamide], the IC90 under setting [1] was found to be 324 nM.
Still for that read-out and setting: the result for `Cc1nc(Cn2cc(-c3cnc(C(=O)Nc4ccc(C(=O)N5CCN(C(=O)C6CCNCC6)CC5)c(Cl)c4)n3C)c(C(F)(F)F)n2)no1` [Example 106, N-[3-chloro-4-[4-(piperidine-4-carbonyl)piperazine-1-carbonyl]phenyl]-1-methyl-5-[1-[(5-methyl-1,2,4-oxadiazol-3-yl)methyl]-3-(trifluoromethyl)pyrazol-4-yl]imidazole-2-carboxamide;hydrochloride] reads 848 nM; that for `Cn1c(-c2cn(C3CC3)nc2C(F)(F)F)cnc1C(=O)Nc1ccc(C(=O)N2CCN(C(=O)CC3CCNCC3)CC2)c(Cl)c1` [Example 309, N-(3-chloro-4-(4-(2-(piperidin-4-yl)acetyl)piperazine-1-carbonyl)phenyl)-5-(1-cyclopropyl-3-(trifluoromethyl)-1H-pyrazol-4-yl)-1-methyl-1H-imidazole-2-carboxamide hydrochloride], 378 nM.
The same measure, in the same setting: the result for `Cn1c(-c2cn(C3CC3)nc2C(F)(F)F)cnc1C(=O)Nc1ccc(C(=O)N2CCN(C(=O)CN)CC2)c(Cl)c1` [Example 200, N-(3-chloro-4-(4-glycylpiperazine-1-carbonyl)phenyl)-5-(1-cyclopropyl-3-(trifluoromethyl)-1H-pyrazol-4-yl)-1-methyl-1H-imidazole-2-carboxamide hydrochloride] reads 215 nM; that for `Cn1c(-c2cn(CC(F)F)nc2C(F)(F)F)cnc1C(=O)Nc1ccc(C(=O)N2CCN(C(=O)NC3CNC3)CC2)c(Cl)c1` [Example 146, N-(azetidin-3-yl)-4-[2-chloro-4-[[5-[1-(2,2-difluoroethyl)-3-(trifluoromethyl)pyrazol-4-yl]-1-methylimidazole-2-carbonyl]amino]benzoyl]piperazine-1-carboxamide;formic acid], 434 nM; that for `Cn1c(-c2cn(CC(F)F)nc2C(F)(F)F)cnc1C(=O)Nc1ccc(S(=O)(=O)N2CCNCC2)c(Cl)c1` [Example 188, N-(3-chloro-4-(piperazin-1-ylsulfonyl)phenyl)-5-(1-(2,2-difluoroethyl)-3-(trifluoromethyl)-1H-pyrazol-4-yl)-1-methyl-1H-imidazole-2-carboxamide hydrochloride], 152 nM.
With `C#CCn1cc(-c2cnc(C(=O)Nc3ccc(C(N)=O)c(Cl)c3)n2C)c(C(F)(F)F)n1` [Example 41, N-(4-Carbamoyl-3-chlorophenyl)-1-methyl-5-(1-(prop-2-yn-1-yl)-3-(trifluoromethyl)-11-pyrazol-4-yl)-1H-imidazole-2-carboxamide], the IC90 under setting [1] turned out to be 801 nM.
Consider `Cn1c(-c2cn(C3CC4(CC4)C3)nc2C(F)(F)F)cnc1C(=O)Nc1ccc(C(=O)N2CCN(C(=O)N[C@H]3C[C@@H](N)C3)CC2)c(Cl)c1` [Example 210, rac-N-((1s,3s)-3-aminocyclobutyl)-4-(2-chloro-4-(1-methyl-5-(1-(spiro[2.3]hexan-5-yl)-3-(trifluoromethyl)-1H-pyrazol-4-yl)-1H-imidazole-2-carboxamido)benzoyl)piperazine-1-carboxamide hydrochloride], for which the IC90 under setting [2] was determined as 231 nM.
As for `Cn1c(-c2cn(CC(F)(F)F)nc2C(F)(F)F)cnc1C(=O)Nc1ccc(C(=O)N2CCN(C(=O)NC3CNC3)CC2)c(Cl)c1` [Example 149, N-(azetidin-3-yl)-4-[2-chloro-4-[[1-methyl-5-[1-(2,2,2-trifluoroethyl)-3-(trifluoromethyl)pyrazol-4-yl]imidazole-2-carbonyl]amino]benzoyl]piperazine-1-carboxamide], the IC90 under setting [1] came out at 550 nM.
Regarding `C#CCn1cc(-c2cnc(C(=O)Nc3ccc(C(=O)NC)c(Cl)c3)n2C)c(C(F)(F)F)n1` [Example 43, N-(3-chloro-4-(methylcarbamoyl)phenyl)-1-methyl-5-(1-(prop-2-yn-1-yl)-3-(trifluoromethyl)-1H-pyrazol-4-yl)-1H-imidazole-2-carboxamide], the IC90 under setting [1] came to 478 nM.
Turning to `Cn1c(-c2cn(CC3CC3)nc2C(F)(F)F)cnc1C(=O)Nc1ccc(C(=O)N2CCN(C(=O)C3[C@H]4CNC[C@@H]34)CC2)c(Cl)c1` (mixture of isomers) [Example 358, rac-N-(4-(4-((1R,5S)-3-azabicyclo[3.1.0]hexane-6-carbonyl)piperazine-1-carbonyl)-3-chlorophenyl)-5-(1-(cyclopropylmethyl)-3-(trifluoromethyl)-1H-pyrazol-4-yl)-1-methyl-1H-imidazole-2-carboxamide hydrochloride], the concentration for an effect of 90% (IC90) under setting [1] amounted to 467 nM.
As to `Cn1c(-c2cn(C3CC3)nc2C(F)(F)F)cnc1C(=O)Nc1ccc(C(=O)NCCCCCN)c(Cl)c1` [Example 221, N-(4-((5-aminopentyl)carbamoyl)-3-chlorophenyl)-5-(1-cyclopropyl-3-(trifluoromethyl)-1H-pyrazol-4-yl)-1-methyl-1H-imidazole-2-carboxamide hydrochloride], the IC90 under setting [1] came to 246 nM.
